# Laboratory results: patent US20220401436A1, “METHODS FOR THE TREATMENT OF CANCERS THAT HAVE ACQUIRED RESISTANCE TO KINASE INHIBITORS” (INSERM (INSTITUTE NATIONAL DE LA SANTÉ ET DE LA RECHERCHE …, priority 2019, published 2022)
# Legend:
# HCC827 = assay: GFP-transduced HCC827 cells treated in vitro, response and relapse followed by fluorescence detection; assay type: cell-based; details: for emergence of resistant proliferative clones: inhibitor at 1 μM
# PC9 = assay: GFP-transduced PC9 cells treated in vitro, response and relapse followed by fluorescence detection; assay type: cell-based; details: for emergence of resistant proliferative clones: inhibitor at 1 μM
# HCC4006 = assay: GFP-transduced HCC4006 cells treated in vitro, response and relapse followed by fluorescence detection; assay type: cell-based; details: for emergence of resistant proliferative clones: inhibitor at 1 μM
# TKI-sensitive models = assay: Relapse in several TKI-sensitive models followed by fluorescence detection (FIG. 1); assay type: cell-based; details: in combination with TKI; FIG. 1 title
# Protocol: (§1) FIG. 1. […] (G-H). GFP-transduced H3122 (ALK-translocated NSCLC cell line) or A375 (BRAF-mutated melanoma cell line) were treated by Tipifarnib 0.1 μM in combination with Alectinib (2 μM) or Vemurafenib (5 μM), respectively, and response as well as relapse was followed by fluorescence detection.
# [1] = combination of Erlotinib and Tipifarnib; phase I clinical trial; cited from earlier work
# [2] = test system: A375 (BRAF-mutated melanoma cell line); assay: GFP-transduced A375 cells treated in vitro, response and relapse followed by fluorescence detection; assay type: cell-based
# Protocol: as §1
# [3] = test system: EGFR-mutated lung cell lines; assay: Drug-tolerant cell (DTC) state in a panel of EGFR-mutated lung cell lines; assay type: cell-based
# Source text: Actin polymerization is a tightly regulated process orchestrated by GTPases. Given our knowledge on the role of RHOB in resistance to targeted therapy, we assessed whether this GTPase could be responsible for the production of stress fibers in response to EGFR-TKI.
# [4] = test system: H3122 (ALK-translocated NSCLC cell line); assay: GFP-transduced H3122 cells treated in vitro, response and relapse followed by fluorescence detection; assay type: cell-based
# Protocol: as §1
# HCC2935 = assay type: cell-based
# H3255 = assay type: cell-based
# [5] = combination with erlotinib 1 μM
# [6] = Tipifarnib alone at 0.1 μM, data not shown
# [7] = combination with erlotinib 1 μM, Tipifarnib at 0.1 μM
# [8] = combination with erlotinib 1 μM, Tipifarnib at 1 μM
# [9] = Tipifarnib alone at 1 μM vs 0.1 μM, data not shown
# [10] = erlotinib alone, data not shown
structure (smiles),measurement,setting,value
COC(=O)[C@H](CC(C)C)NC(=O)c1ccc(NC[C@@H](N)CS)cc1-c1cccc2ccccc12 [GGTI 298],emergence of resistant proliferative clones,HCC827; [5],didn't prevent the emergence of resistant proliferative clones
same,emergence of resistant proliferative clones,PC9; [5],didn't prevent the emergence of resistant proliferative clones
same,emergence of resistant proliferative clones,HCC4006; [5],didn't prevent the emergence of resistant proliferative clones
same,relapse,TKI-sensitive models,not GGTi prevent relapse
"Cn1cncc1[C@@](N)(c1ccc(Cl)cc1)c1ccc2c(c1)c(-c1cccc(Cl)c1)cc(=O)n2C [Tipifarnib, (R)-6-[amino(4-chlorophenyl)(1-methyl-1H-imidazol-5-yl)methyl]-4-(3-chlorophenyl)-1-methyl-2(1H)-quinolinone]",effect on cells growth,HCC827; [6],little-to-non effect
same,elimination of drug tolerant cells,HCC827; [7],efficiently eliminated all drug tolerant cells
same,emergence of resistant clones,HCC827; [7],fully prevented the emergence of resistant clones
same,elimination of drug tolerant cells,HCC827; [8],efficiently eliminated all drug tolerant cells
same,emergence of resistant proliferative clones,HCC827; [5],fully prevented the emergence of resistant clones
same,tolerability in patients,[1],well tolerated
same,effect on cells growth,[2]; Tipifarnib alone at 0.1 μM,some cytostatic effect
same,cytostatic effect,[2]; [9],exacerbated
same,cell death / remaining DTC after several days of treatment,"[3]; combination of Tipifarnib and Erlotinib (1 μM), cell lines not named, data not shown",complete cell death
same,effect on cells growth,[4]; Tipifarnib alone at 0.1 μM,some cytostatic effect
same,cytostatic effect,[4]; [9],exacerbated
same,effect on cells growth,PC9; [6],little-to-non effect
same,elimination of drug tolerant cells,PC9; [7],efficiently eliminated all drug tolerant cells
same,emergence of resistant clones,PC9; [7],fully prevented the emergence of resistant clones
same,elimination of drug tolerant cells,PC9; [8],efficiently eliminated all drug tolerant cells
same,emergence of resistant proliferative clones,PC9; [5],fully prevented the emergence of resistant clones
same,effect on cells growth,HCC4006; [6],some cytostatic effect
same,cytostatic effect,HCC4006; [9],exacerbated
same,elimination of drug tolerant cells,HCC4006; [7],efficiently eliminated all drug tolerant cells
same,emergence of resistant clones,HCC4006; [7],fully prevented the emergence of resistant clones
same,elimination of drug tolerant cells,HCC4006; [8],efficiently eliminated all drug tolerant cells
same,emergence of resistant proliferative clones,HCC4006; [5],fully prevented the emergence of resistant clones
same,relapse,TKI-sensitive models,prevent relapse
C#Cc1cccc(Nc2ncnc3cc(OCCOC)c(OCCOC)cc23)c1 [erlotinib],generation of DTC,[3],able to generate DTC
same,proliferative resistant clones after erlotinib treatment,PC9; [10],able to generate proliferative resistant clones
same,proliferative resistant clones after erlotinib treatment,HCC4006; [10],able to generate proliferative resistant clones
same,resistant clones after erlotinib treatment,HCC2935,never observed resistant clones
same,resistant clones after erlotinib treatment,H3255,never observed resistant clones
C=CC(=O)Nc1cc(Nc2nccc(-c3cn(C)c4ccccc34)n2)c(OC)cc1N(C)CCN(C)C [osimertinib],generation of DTC,[3],able to generate DTC
